The record followed here is paper PMC9873481 (Nature, 2022).

One series has as its target T1, hBest2 (Homo sapiens, UniProt Q8NFU1).
T1 sequence (Q8NFU1 1-509): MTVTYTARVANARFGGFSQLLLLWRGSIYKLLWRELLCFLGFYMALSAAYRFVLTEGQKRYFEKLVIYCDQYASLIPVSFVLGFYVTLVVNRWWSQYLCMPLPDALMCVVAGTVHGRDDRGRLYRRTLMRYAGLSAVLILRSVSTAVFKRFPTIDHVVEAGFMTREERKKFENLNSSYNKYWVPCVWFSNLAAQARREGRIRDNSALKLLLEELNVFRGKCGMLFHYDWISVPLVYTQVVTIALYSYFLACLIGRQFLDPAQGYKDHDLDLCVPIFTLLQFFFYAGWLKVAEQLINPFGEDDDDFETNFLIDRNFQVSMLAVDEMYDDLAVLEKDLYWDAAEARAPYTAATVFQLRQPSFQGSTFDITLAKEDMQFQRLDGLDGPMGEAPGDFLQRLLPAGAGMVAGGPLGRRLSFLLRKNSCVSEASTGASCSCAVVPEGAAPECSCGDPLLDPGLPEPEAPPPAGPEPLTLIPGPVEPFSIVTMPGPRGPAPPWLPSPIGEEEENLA
In words: whole-cell patch clamp, HEK293. Format: cell-based.

The series “cryo-EM structure” concerns the molecule itself. In words: cryo-EM structure.

Usually EC50 stands for the concentration that produces a half-maximal response. Low readings indicate a more potent agent, high ones a less potent agent. Take `N[C@@H](CCC(=O)O)C(=O)O` [glutamate]: the concentration giving a half-maximal response (EC50) at hBest2 amounted to 46 mM.

B1: bovine bestrophin-2, purified for cryo-EM (GFP-His tag removed) (natural protein)
chain: MTVTYTARVAKARFGGFSKLLLLWRGSIYKLLWRELLCFLGLFMALSAAYRFVLTEEQKRYFEKLVLYCDRYASLIPVSFVLGFYVTLVVHRWWNQYLSMPLTDALMCVVVGTVHGHDERGRLYRRTLMRYAGLSGVLILRSVSTAVFKRFPTIDHVVEAGFMTREERKKFENLNSSYNKYWVPCVWFCNLAAQARREGRIRDNGAFKLLLEELNVFRSKCGMLFHYDWISVPLVYTQVVTIAVYSYFLACLIGRQFLDPAQGYKDHDLDLCVPIFTLLQFFFYAGWLKVAEQLINPFGEDDDDFETNFLIDRCFQVSMLAVDEMYDDLAMLEKDLYWDAAEARAPYTAATAFLMQQPSFQGSTFDITLAKEDMQFQRQDGLEAPLNEAHGDFLQRLLPVGTGMGTGGLL
As usually defined, the stoichiometry N is a count of units in the complex or per binding partner. With B1, the “stoichiometry N” value in the series “cryo-EM structure” came out at 5.
